Laboratory results taken from patent US20230174486A1, “NON-LYSOSOMAL GLUCOSYLCERAMIDASE INHIBITORS AND USES THEREOF” (ALECTOS THERAPEUTICS lNC., priority 2020, published 2023).

Tests used:
human GBA2 = biological target: T1, human GBA2 (Homo sapiens, UniProt Q9HCG7); experiment: Inhibition of GBA2 in cell lysate (4-methylumbelliferone-β-D glucopyranoside substrate); assay type: biochemical; details: homogenate of HEK293T cells stably overexpressing human GBA2, pH 5.5, 37° C., GCase inhibitor present
T1 construct: cellular homogenate
T1 sequence (Q9HCG7 1-927): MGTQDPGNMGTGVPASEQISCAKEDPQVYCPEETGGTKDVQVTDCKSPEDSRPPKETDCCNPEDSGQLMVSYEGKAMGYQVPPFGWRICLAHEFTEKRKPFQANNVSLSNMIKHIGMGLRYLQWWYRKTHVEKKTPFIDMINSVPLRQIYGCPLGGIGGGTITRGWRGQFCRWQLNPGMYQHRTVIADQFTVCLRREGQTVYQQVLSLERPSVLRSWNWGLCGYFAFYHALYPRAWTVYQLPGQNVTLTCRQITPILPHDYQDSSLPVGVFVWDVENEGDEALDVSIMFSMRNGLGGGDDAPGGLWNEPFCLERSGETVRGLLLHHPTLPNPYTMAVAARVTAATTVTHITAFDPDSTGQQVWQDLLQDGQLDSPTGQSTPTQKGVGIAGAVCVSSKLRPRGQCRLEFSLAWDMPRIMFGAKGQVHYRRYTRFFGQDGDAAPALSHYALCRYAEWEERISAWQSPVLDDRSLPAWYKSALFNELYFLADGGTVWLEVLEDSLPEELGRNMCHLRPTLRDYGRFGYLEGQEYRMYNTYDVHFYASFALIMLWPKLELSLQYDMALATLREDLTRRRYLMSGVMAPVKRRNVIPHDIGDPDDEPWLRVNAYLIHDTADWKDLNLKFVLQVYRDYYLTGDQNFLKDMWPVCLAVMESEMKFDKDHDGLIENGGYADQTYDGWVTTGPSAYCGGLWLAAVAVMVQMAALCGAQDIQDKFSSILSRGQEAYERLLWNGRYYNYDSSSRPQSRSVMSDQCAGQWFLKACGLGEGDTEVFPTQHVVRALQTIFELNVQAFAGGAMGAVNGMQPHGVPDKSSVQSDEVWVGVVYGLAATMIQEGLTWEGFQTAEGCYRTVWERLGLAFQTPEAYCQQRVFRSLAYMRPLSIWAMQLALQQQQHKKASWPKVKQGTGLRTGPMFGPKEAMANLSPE
Protocol: Stable GBA2-expressing HEK293T cells were generated as follows. The PCR-amplified human GBA2 (GBA2 nucleotide accession number BC011363) using the following primers: Sense 5’---CGCAAATGGGCGGTAGGCGTG---3’ and antisense 5’---TAGTCAGCCATGGGGCGGAGA ---3’) was cloned into pLenti-GIII-CMV by ABM Inc. The correctness of the construct was verified by sequencing. Lentivirus particles containing GBA2 in the pLenti-GIII-CMV plasmid were prepared using a third Generation Virus Packaging Mix (ABM cat# LV053-G074) in HEK293T cells and supplied as a virus particle suspension. The virus suspension was used for infection of HEK293T cells. Cell populations stably expressing human GBA2 were selected using puromycin for several weeks as determined by activity assays and western blot.
Various concentrations of test compounds were prepared in DMSO and then diluted into buffer consisting of 100 mM citric acid, 200 mM disodium phosphate with 1% v/v C10E6, pH 5.5. Cellular homogenates (0.25 mg/mL) of the stable HEK293T-overexpressing GBA2 cell line were preincubated for 10 min on ice with an inhibitor of GCase (20 µM (6R,7R,8S)-8-ethyl-4-azaspiro[2.5]octane-6,7-diol). The reaction solution consisted of 20 µL of 750 µM 4-methylumbelliferone-β-D glucopyranoside in 5% DMSO in the same buffer, 20 µL of GBA2-cellular homogenate pre-treated with (6R,7R,8S)-8-ethyl-4-azaspiro[2.5]octane-6,7-diol and 20 µL of various concentrations of test compound in 10% DMSO in the same buffer. The final concentrations in the reaction were 0.083 mg/mL GBA2-cellular homogenate, 250 µM 4-methylumbelliferone-β-D glucopyranoside, and various concentrations of inhibitor. The inhibitor and GBA2-cellular homogenate were preincubated together for 5 min at 37° C. The reaction was initiated by addition of substrate and allowed to proceed for 20 min at 37° C. to assess GBA2 activity. Reactions were stopped by the addition of an equal volume (60 µL) of 0.5 M NaOH, 0.3 M glycine, pH 10.5. Fluorescence was measured on a Biotek Synergy H4 plate reader at wavelengths of 365 nm for excitation and 450 nm for emission. Incubations without added enzyme or added inhibitors were used to define no enzyme activity and maximal enzyme activity, respectively. IC50 values were determined by fitting the data to a log[inhibitor concentration] versus response curve using GraphPad Prism. IC50 values were calculated as the concentration of inhibitor required to inhibit GBA2 activity by 50%.

[1] = biological target: T2, human non-lysosomal glucosylceramidase (GBA2) (Homo sapiens, UniProt Q9HCG7); experiment: Binding specificity for GBA2 over other molecules (ratio of Ki or IC50 values); assay type: biochemical; details: qualitative statement, no values or other enzyme given
T2 sequence (Q9HCG7 1-927): T1 sequence (Q9HCG7 1-927)
Excerpt: In some embodiments, one or more of the compounds according to the invention may specifically bind a GBA2. In alternative embodiments, one or more of the compounds according to the invention may specifically bind the active site of a GBA2. […] In alternative embodiments, one or more of the compounds according to the invention may specifically bind the human non-lysosomal glucosylceramidase (GBA2) over the human lysosomal glucosylceramidase (GCase) and/or the human cytosolic glucosylceramidase (GBA3). In alternative embodiments, one or more of the compounds according to the invention may specifically bind the human non-lysosomal glucosylceramidase (GBA2) over the human glucosylceramide synthase (GCS). In alternative embodiments, one or more of the compounds according to the invention may specifically bind the human non-lysosomal glucosylceramidase (GBA2) over an intestinal alpha-glucosidase, where the intestinal alpha-glucosidase may be a sucrase-isomaltase or a maltase-glucoamylase.

Row | SMILES | GBA2 IC50 (human GBA2) | binding specificity, Ki(other molecule)/Ki(GBA2) or IC50(other molecule)/IC50(GBA2) [1]
1 | CCCCOc1cc(F)c(CCN2C[C@H](O)[C@@H](O)[C@H](O)[C@@H]2CO)c(F)c1 [Example 23, (2S,3R,4R,5S)-1-(4-butoxy-2,6-difluorophenethyl)-2-(hydroxymethyl)piperidine-3,4,5-triol] | ∗∗∗ | enhanced binding specificity
2 | OC[C@H]1[C@@H](O)[C@H](O)[C@@H](O)CN1CC1Cc2ccccc2C1 [Example 15, (2S,3R,4R,5S)-1-((2,3-dihydro-1H-inden-2-yl)methyl)-2-(hydroxymethyl)piperidine-3,4,5-triol] | ∗∗∗ | enhanced binding specificity
3 | OC[C@H]1[C@@H](O)[C@H](O)[C@@H](O)CN1C[C@@H]1CCN(c2nc(C(F)(F)F)cs2)C1 [Example 28, (2S,3R,4R,5S)-2-(hydroxymethyl)-1—(((S)—1-(4-(trifluoromethyl)thiazol-2-yl)pyrrolidin-3-yl)methyl)piperidine-3,4,5-triol] | ∗∗∗ | enhanced binding specificity
4 | OC[C@H]1[C@@H](O)[C@H](O)[C@@H](O)CN1C[C@H]1CC[C@H](C(F)F)CC1 [Example 312, (2S,3R,4R,5S)-1-(((1r,4S)-4-(difluoromethyl)cyclohexyl)methyl)-2-(hydroxymethyl)piperidine-3,4,5-triol] | ∗∗∗ | enhanced binding specificity
5 | OC[C@H]1[C@@H](O)[C@H](O)[C@@H](O)CN1C[C@H]1CC[C@H](C(F)(F)F)CC1 [Example 13, (2S,3R,4R,5S)-2-(hydroxymethyl)-1-(((1r,4R)-4-(trifluoromethyl)cyclohexyl)methyl)piperidine-3,4,5-triol] | ∗∗∗ | enhanced binding specificity
6 | OC[C@H]1[C@@H](O)[C@H](O)[C@@H](O)CN1C[C@@H]1CCCN(c2ncccc2C(F)(F)F)C1 [Example 31, (2S,3R,4R,5S)-2-(hydroxymethyl)-1—(((S)—1-(3-(trifluoromethyl)pyridin-2-yl)piperidin-3-yl)methyl)piperidine-3,4,5-triol] | ∗∗∗ | enhanced binding specificity
7 | OC[C@H]1[C@@H](O)[C@H](O)[C@@H](O)CN1C[C@@H]1CCN(c2ncccc2C(F)(F)F)C1 [Example 27, (2S,3R,4R,5S)-2-(hydroxymethyl)-1—(((S)—1-(3-(trifluoromethyl)pyridin-2-yl)pyrrolidin-3-yl)methyl)piperidine-3,4,5-triol] | ∗∗∗ | enhanced binding specificity
8 | OC[C@H]1[C@@H](O)[C@H](O)[C@@H](O)CN1C[C@H]1CC[C@@H](C(F)F)CC1 [Example 311, (2S,3R,4R,5S)-1-(((1s,4R)-4-(difluoromethyl)cyclohexyl)methyl)-2-(hydroxymethyl)piperidine-3,4,5-triol] | ∗∗∗ | enhanced binding specificity
9 | OC[C@@H]1[C@@H](O)[C@H](O)[C@@H](O)CN1CCc1c(F)cccc1F [Example 4, (2R,3R,4R,5S)-1-(2,6-difluorophenethyl)-2-(hydroxymethyl)piperidine-3,4,5-triol] | ∗∗∗ | enhanced binding specificity
10 | CCCCOc1ccc(CCN2C[C@H](O)[C@@H](O)[C@H](O)[C@@H]2CO)cc1 [Example 22, (2S,3R,4R,5S)-1-(4-butoxyphenethyl)-2-(hydroxymethyl)piperidine-3,4,5-triol] | ∗∗∗ | enhanced binding specificity

More lines, now with the values ahead:

Row | GBA2 IC50 (human GBA2) | binding specificity, Ki(other molecule)/Ki(GBA2) or IC50(other molecule)/IC50(GBA2) [1] | SMILES
11 | ∗∗∗ | enhanced binding specificity | CC(F)(F)[C@H]1CC[C@@H](CN2C[C@H](O)[C@@H](O)[C@H](O)[C@@H]2CO)CC1 [Example 313, (2S,3R,4R,5S)-1-(((1s,4R)-4-(1,1-difluoroethyl)cyclohexyl)methyl)-2-(hydroxymethyl)piperidine-3,4,5-triol]
12 | ∗∗∗ | enhanced binding specificity | OC[C@H]1[C@@H](O)[C@H](O)[C@@H](O)CN1CCc1c(F)cc(C2CCOCC2)cc1F [Example 21, (2S,3R,4R,5S)-1-(2,6-difluoro-4-(tetrahydro-2H-pyran-4-yl)phenethyl)-2-(hydroxymethyl)piperidine-3,4,5-triol]
13 | ∗∗∗ | enhanced binding specificity | OC[C@H]1[C@@H](O)[C@H](O)[C@@H](O)CN1CC1CCN(c2ccc(F)cc2)CC1 [Example 24, (2S,3R,4R,5S)-1-((1-(4-fluorophenyl)piperidin-4-yl)methyl)-2-(hydroxymethyl)piperidine-3,4,5-triol]
14 | ∗∗∗ | enhanced binding specificity | OC[C@H]1[C@@H](O)[C@H](O)[C@@H](O)CN1C[C@H]1CCCN(c2ncccc2C(F)(F)F)C1 [Example 29, (2S,3R,4R,5S)-2-(hydroxymethyl)-1—(((R)—1-(3-(trifluoromethyl)pyridin-2-yl)piperidin-3-yl)methyl)piperidine-3,4,5-triol]
15 | ∗∗∗ | enhanced binding specificity | OC[C@H]1[C@@H](O)[C@H](O)[C@@H](O)CN1CCC1CCCCC1 [Example 16, (2S,3R,4R,5S)-1-(2-cyclohexylethyl)-2-(hydroxymethyl)piperidine-3,4,5-triol]
